The record followed here is US20100173983A1, “METHOD FOR INDUCING AUTOPHAGY” (priority 2007, published 2010).

Structures are written as SMILES.

One assay concerns Beclin 1. The assay is described as follows: Western blot of R-182 mitochondrial extracts, Beclin 1. It counts as cell-based, Human. Conditions: R-182 cells, 5 μg/ml over 24 hr. An excerpt: (§1) FIG. 8. Molecular evidence of autophagic cell death in R-182 ovarian cancer cells induced by Cpd 1. […] B, Beclin 1 binds to Bcl-2. Immunoprecipitation study using mitochondrial preparations of cells pre-treated with Cpd 1 as stated in A, and subjected to beclin 1 immunoprecitation. Immunoprecipitated fractions were washed in PBS, subjected to SDS-PAGE, blotted and then probed with a mouse anti-Bcl-2 antibody. Actin and Topo-1 were used as loading control. C, Depolarized cells resulting from over-expression of Bax and Beclin 1 following administration of Cpd 1. Cells were treated with Cpd 1 as described in A, pelleted and washed in HBSS and the cell pellet resuspended in the reaction buffer for JC-1 (Biovision, Inc. MitoCapture™ K250-100). HBSS-washed cells were analysed by flow cytometry (λexcit=488 nm and (λemit=530 nm for green fluorescence (depolarized) or 590 nm for red fluorescence (polarized). 10,000 gated events were measured with a BD FACScalibur. Results were expressed as mean±standard deviation (n=3).
(§2) After treatment with Cpd 1, protein was extracted from cells and measured as previously described (Kamsteeg et al., 2003). For separation of the cytoplasmic and mitochondrial fractions, cell pellets were processed using the ApoAlert Cell Fractionation kit (Promega) according to the manufacturer's instructions. […]
(In general: In western blotting, separated proteins are transferred to a membrane and probed.)

In a further assay the test system is endonuclease G. The assay is described as follows: Immunohistology of xenograft tumour sections, endonuclease G. It counts as in vivo, SCID mice. The settings on record: 100 mg/kg, compared to control. The protocol:
FIG. 11. Cpd 1 markers of autophagy observed in in vitro studies are also present in vivo. […] T-S6K served as loading control.
In vivo studies using tumour-bearing mice were conducted to further confirm that Cpd 1 induces programmed cell death via an autophagic process. SCID mice bearing chemoresistant epithelial ovarian cancer (EOC) xenografts derived from a primary cell culture of a patient's ascites were administered with increasing doses of Cpd 1 by intraperotineal injection resulting in reductions in both tumor volume and tumor weight (data not shown). Representative tumours excised from these mice and tumour-bearing mice administered vehicle control were then fixed, sectioned and subjected to immunohistopathology analysis using an α-enodonuclease G directed monoclonal antibody. Tumor samples were blocked with either 10% horse or goat serum in PBS for 1 hour at room temperature. Following three washes with PBS, samples were incubated overnight at 4° C. with either the anti-EndoG (LifeSpan Bioscience) antibody or mouse IgG1 isotype as negative controls. After three washes with PBS, specific staining was detected by incubating with a peroxidase-conjugated horse anti-mouse antibody (1:1000 dilution) for 1 hour followed by a five-minute incubation with DAB substrate (Vector Laboratories). […]

The next assay deals with caspase 3. The assay can be described thus: Caspase-Glo 3/7 assay in R182 cells. Type of assay: cell-based, Human. Conditions: R182 ovarian cancer explants; dose response and duration of exposure (5 μg/ml, 0-25 hr). How it is done:
FIG. 2. Comparative induction of caspase 3 in R182 ovarian cancer explants by Cpd 1 and dehydroequol using either dose response (A) or duration of exposure (B). Caspase 3 activity was assessed using the Caspase-Glo 3/7 assays.
For caspase activity assays, 10 μg of protein in 50 μL total volume was mixed with 50 μL of equilibrated Caspase-Glo 3/7, 8, or 9 reagents (Promega). After incubating at room temperature for 1 hour, luminescence was measured using TD 20/20 Luminometer (Turner Designs, Sunnyvale, Calif.). Blank values were subtracted and fold-increase in activity was calculated based on activity measured from untreated cells. Each sample was measured in triplicate.

The next assay relates to Beclin 1 / Bcl-2. The assay is described as follows: Beclin 1 immunoprecipitation probed with anti-Bcl-2. Type of assay: cell-based, Human. The settings on record: mitochondrial preparations of Cpd 1 treated cells.
From the text: as §1
To measure membrane depolarization cells were treated with Cpd 1 as described above, pelleted and washed in HBSS and the cell pellet resuspended in the reaction buffer for JC-1 (Biovision, Inc. MitoCapture™ K250-100). HBSS-washed cell pellets were resuspended in 1 mL aliquots of the Mitocapture reagent buffer with 1 μL of JC-1 solution in DMSO (Biovision).

For assay [1], the system named is CP70 (cell line), R179, R182, R585 (primary ovarian cancer explants). The assay can be described thus: Cell viability, CellTiter 96 Aqueous One Solution Cell Proliferation Assay, ovarian cancer cells. The settings on record: concentrations up to 10 μg/ml, 24 hr exposure. It counts as cell-based, Human. How it is done: FIG. 1. Comparative cytotoxicity of dehydroequol and Compound I as described herein (Cpd 1) against normal and ovarian cancer cells: CP70 (cell line), R179, R182, R585 (primary ovarian cancer explants) and OSE (normal ovarian surface epithelial cells). […] Both compounds were tested at concentrations up to 10 μg/ml and exposed to cells for 24 hr.
Human EOC cell lines A2780, CP70, and OSE were propagated in RPMI plus 10% fetal bovine serum (FBS) (Gemini Bio-Products, Woodland, Calif.) at 37° C. in a 5% CO2 atmosphere. Primary EOC cells (R179, R182, R585) were isolated from malignant ovarian ascites and cultured as previously described (Kamsteeg et al., 2003). Dehydroequol and Compound 1 (Cpd 1) were obtained from Novogen (Australia). All other reagents were purchased from Sigma Chemical (St. Louis, Mo.). The pan caspase inhibitor Z-VAD-FMK was obtained from R&D Systems (Minneapolis, Minn.).
Cell viability was evaluated using the CellTiter 96 Aqueous One Solution Cell Proliferation Assay (Promega, Madison, Wis.) according to the manufacturer's instructions. The values from the treated cells were compared with the values generated from the untreated cells and reported as percent viability. Each experiment was performed in triplicate.

The next assay concerns XIAP. The assay can be described thus: Western blot of R-182 cells, XIAP. Type of assay: cell-based, Human. Conditions: 5 μg/ml over 24 hr.
From the text: as §1, §2

In the case of `COc1ccc([C@H]2c3ccc(O)c(C)c3OC[C@H]2c2ccc(O)cc2)cc1` (stereo in doubt) [Cpd 1, 3-(4-hydroxyphenyl)-4-(4-methoxyphenyl)-8-methylchroman-7-ol], the “mitochondrial content of beclin-1” value with Beclin 1 is on record as “transiently increased”. The “expression of nuclear endonuclease G in tumour sections” value in the assay on endonuclease G is listed as “increased”. Moreover, in the assay with caspase 3, the “caspase 3 activity” value is on record as “did not induce caspase 3 activity”. Besides, in the assay with Beclin 1 / Bcl-2, the “Beclin and Bcl-2 co-precipitation” value is on record as “co-precipitate at higher concentrations compared to control”. The “cell viability of ovarian cancer cells” value in assay [1] was “decreased cell viability of all primary ovarian cancer cells”. Moreover, in the assay on XIAP, the XIAP expression entry is recorded as “remains unchanged”.
